For orientation: MIC means the lowest concentration found to suppress growth. Low readings indicate greater potency, high ones weaker potency.

Converted amounts (≈) assume the structure as drawn. A value given as a limit tells only on which side of the number the result lay.

What all share (type): functional
Test [1] relates to Clostridioides difficile. The test is described as follows: Antibacterial activity against Clostridium difficile clinical isolate expressing tet(M) gene by Etest.
In test [2] the test system is Clostridioides difficile. The test is described as follows: Antibacterial activity against Clostridium difficile CD5 expressing tet(W) gene.
Test [3] concerns Clostridioides difficile. The test is described as follows: Antibacterial activity against Clostridium difficile CD37 harboring tet(M) gene from Clostridium difficile CD5.

With `CN(C)[C@@H]1C(O)=C(C(N)=O)C(=O)[C@@]2(O)C(O)=C3C(=O)c4c(O)cccc4[C@@](C)(O)[C@H]3C[C@@H]12` [TETRACYCLINE], the MIC in test [1] was at least 8 µg/mL; in test [2] it was 8 µg/mL (≈ 18 µM); in test [3], 8 µg/mL (≈ 18 µM).

Source of the values: ChEMBL document CHEMBL1152996, “Tetracycline resistance gene tet(W) in the pathogenic bacterium Clostridium difficile” (2008).
